Source: patent US20230346956A1, “COMPLEX OF 7-DEACETYLFORSKOLIN AND PVP” (SciPharm S.à.r.l, priority 2020, published 2023)
Values after ≈ are worked out from the molar mass of the structure shown.

Columns and labels:
[1] = tested on: adenylyl cyclase (HEK293 cells stably expressing IP receptor); test: cAMP assay, HEK293 cells with IP receptor; type: cell-based, human; conditions: 30 μM forskolin in DMSO, 100 μM 7-DAFSK in water or as PVP K12 complex in water, with 30 μM treprostinil, treprostinil alone = control, 30 min, room temperature
Protocol: (§1) A cAMP assay was performed using HEK293 cells (human embryonic kidney cells, 1970) with the prostaglandin receptors EP2 or EP4, or the prostacyclin receptor IP. HEK293 cells were incubated with FCS and a radioligand ([^3H] adenine). The formation of cAMP ([^3H] cAMP) was monitored experimentally.
(§2) Day 1: HEK293 cells stably expressing either EP2, EP4, or IP receptors were grown on a 6-well plate in 2 mL DMEM medium containing 10% FCS and 2 μCi [^3H]-adenine and incubated for 16 hours.
(§3) Day 2: Cells were stimulated with 30 μM treprostinil alone or in combination with […] forskolin in DMSO, 100 μM 7-DAFSK in water, or 100 μM 7-DAFSK in 7-DAFSK-PVP K12 complex in water (in fresh medium for 30 minutes at room temperature). Cells were then lysed with 2.5% perchloric acid (PCA) for 30 minutes on ice. The PCA extract was neutralized with KOH and [^3H]cAMP was separated by sequential chromatography using DOWEX and alumina columns. Radioactivity was then measured using a scintillator.
(§4) An aliquot of PCA extract from each well was used to measure radioactivity.

[2] = Determination of water solubility (excess complex in water, filtration, HPLC); type: physicochemical; conditions: content of active in filtrate by HPLC
Protocol: For the solubility tests, the respective complex dried by means of rotary evaporator was used. A defined amount of water is added and then complex is added until an excess of 7-DAFSK-PVP is present. The supersaturated solution is sonicated, stirred and slightly heated (water bath 40° C.). The suspension is then filtered (0.45 μm filter) and the content of 7-DAFSK in the filtrate is determined by HPLC.

[3] = tested on: adenylyl cyclase (HEK293 cells stably expressing EP2 receptor); test: cAMP assay, HEK293 cells with EP2 receptor; type: cell-based, human; conditions: 30 μM forskolin in DMSO, 100 μM 7-DAFSK in water or as PVP K12 complex in water, with 30 μM treprostinil, treprostinil alone = control, 30 min, room temperature
Protocol: as §1, §2, §3, §4

[4] = tested on: adenylyl cyclase (HEK293 cells stably expressing EP4 receptor); test: cAMP assay, HEK293 cells with EP4 receptor; type: cell-based, human; conditions: 30 μM forskolin in DMSO, 100 μM 7-DAFSK in water or as PVP K12 complex in water, with 30 μM treprostinil, treprostinil alone = control, 30 min, room temperature
Protocol: as §1, §2, §3, §4

[5] = Amount going into solution in 6 mL H2O after the preparation procedure (0.45 μm filtration, HPLC); type: physicochemical; conditions: control sample without PVP12, heating method, 20 mg 7-DAFSK
Protocol: For the complexation of 7-deacetyl-forskolin with PVP K12 (“Kollidon” 12 PF, Ph. Eur., USP, JP; BASF, average molar mass: about 2.5 kD), 20 mg of 7-DAFSK and 20 mg of PVP K12 were triturated in a porcelain crucible and 300 μL of ethanol was added and stirred. After 10 min, 100 μL of H2O was added, stirred, and allowed to stand again for 10 min. The solution was then heated to 140° C. in a drying oven within 40 min and left in it for a total of 45 min. After cooling, 3 mL of H2O was added and stirring was performed for 20-30 min. Then, the suspension was taken up with a syringe and filtered through 0.45 μm filter (hydrophilic). The crucible was rewashed with 3 mL H2O and the wash solution was also filtered through the filter. The content of 7-DAFSK dissolved in the 6 mL H2O was determined by HPLC. For the determination, the 7-DAFSK-PVP complex solution was diluted 1:10 with running medium. A mass fraction of 7-DAFSK in the total complex of 35 wt % was determined.
To optimize the content of 7-DAFSK in the total complex, the weight ratios of 7-DAFSK and PVP K12 used were varied (FIG. 3). […]
20 mg FSK and 40 mg PVP 25 were triturated in a porcelain crucible and 300 μL ethanol (alternatively propanol) was added and stirred. […] The content of FSK dissolved in the 6 mL H2O was determined by HPLC. A mass fraction of FSK in the total complex of <0.01 wt % was determined.

[6] = literature/background value; cited from earlier work

| SMILES | activation of adenylyl cyclase ([3H]cAMP formation) [1] | water solubility [2] [mg/mL] | activation of adenylyl cyclase ([3H]cAMP formation) [3] | activation of adenylyl cyclase ([3H]cAMP formation) [4] | proportion of the 7-DAFSK used brought into solution [5] | solubility in water [6] | solubility ([2]; 40 °C, thermodynamic from solid) [µg/mL] |
| --- | --- | --- | --- | --- | --- | --- | --- |
| C=C[C@@]1(C)CC(=O)[C@]2(O)[C@@]3(C)[C@@H](O)CCC(C)(C)[C@@H]3[C@H](O)[C@H](O)[C@@]2(C)O1 [7-DAFSK, 7-deacetyl-forskolin] | enhanced activity | 1 (≈ 2710 µM) | enhanced activity | enhanced activity | less than a quarter | up to 1 mg/mL | – |
| C=C[C@@]1(C)CC(=O)[C@]2(O)[C@@]3(C)[C@@H](O)CCC(C)(C)[C@@H]3[C@H](O)[C@H](OC(C)=O)[C@@]2(C)O1 [FSK, forskolin] | – | – | – | – | – | 0.01 mg/mL (≈ 24.4 µM) | 10 (≈ 24.4 µM) |
| CCCCC[C@H](O)CC[C@@H]1[C@H]2Cc3cccc(OCC(=O)O)c3C[C@H]2C[C@H]1O [Treprostinil, treprostinil] | no activation of AC | – | no activation of AC | no activation of AC | – | – | – |
